# US7648993B2, “Methods of treating disorders with Group I mGluR antagonists” (Brown University, priority 2001, dated 2010)
# Entries after “also recorded” stand apart in the source; their conditions may differ.
# Assays:
# [1] = system: hippocampal area CA1 slices; test: Field potential (FP) recordings in area CA1 of rat hippocampal slices (DHPG-LTD); type: cell-based, Long Evans rats
# Protocol: All animals were used in accordance with procedures approved by the Brown University Institutional Animal Care and Use Committee. Hippocampal slices were prepared from postnatal day 21-30 (P21-30) Long Evans rats (Charles River, Cambridge, Mass.) and mGluR5 knockout mice (Lu et al. 1997) as described previously (Huber et al. 2000). For most experiments, CA3 was removed immediately after sectioning. Slices recovered for 1-2 h at room temperature (rats) or at 30° C. (mice) in artificial cerebrospinal fluid (ACSF) containing (in mM) 124 NaCl, 5 KCl, 1.25 NaH2PO4, 26 NaHCO3, 1 MgCl2, 2 CaCl2, and 10 dextrose, saturated with 95% O2-5% CO2. For recording, slices were placed in a submersion recording chamber and perfused with 30° C. ACSF at a rate of 2 ml/min.
# Synaptically evoked field potentials (FPs) were recorded from area CA1 as described previously. Sharp microelectrode and whole cell voltage-clamp recordings were made using Axoclamp 2B and Axopatch 1D amplifiers (Axon Instruments), respectively. Sharp electrodes (80-120 M Ω) were filled with 3 M K-acetate and 10 mM KCl; patch pipettes (3-7 M Ω) were filled with (in mM) 134 K-gluconate, 6 KCl, 4 NaCl, 10 HEPES, 0.2 EGTA, 4 MgATP, 0.3 TrisGTP, and 14 phosphocreatine. The pH of the internal solution was adjusted to 7.25 with KOH, and the osmolarity was adjusted to 300 mOsm with H2O or sucrose. Only experiments in which there was less than a 15% change in series resistance were included in the analysis. Waveforms were filtered at 2 kHz and acquired and digitized at 10 kHz on a PC using Experimenter's Workbench (DataWave Systems, Boulder, Colo.).
# Baseline responses were collected every 10-30 s using a stimulation intensity (10-30 μA; 0.2 ms) yielding 50-60% of the maximal response. Experiments in which there was a>5% drift in the response magnitude during the 20-min baseline period before DHPG or LFS were excluded from further analysis. All experiments with mGluR5 KO mice used wildtype littermates as controls and were performed blind to the genotype, later determined by Therion (Troy, N.Y.). LFS consisted of 900 pulses at 1 Hz. PP-LFS consisted of 900 pairs of stimuli (50-ms interstimulus interval) delivered at 1 Hz. In saturation experiments, stimulus duration was increased from 0.2 to 0.4 ms during PP-LFS.
# The group data were analyzed as follows: 1) the initial slopes of the FPs and excitatory postsynaptic potentials (EPSPs), or the amplitude of the excitatory postsynaptic currents (EPSCs), for each experiment were expressed as percentages of the preconditioning or DHPG baseline average, 2) the time scale in each experiment was converted to time from the onset of conditioning or DHPG, and 3) the time-matched, normalized data were averaged across experiments and expressed in the text and figures as the means ±SE. Significant differences between groups were determined using an independent t-test or ANOVA performed on a 5-min average taken 1 h after LFS or DHPG application.
# R,S-DHPG and D-2-amino-5-phosphonopentanoic acid (D-AP5) was purchased from Tocris (St. Louis, Mo.); all other chemicals were from Sigma Chemical (St Louis, Mo.). DHPG was prepared as a 100 times stock in H2O, aliquoted and stored at −20° C. Fresh stocks were made once a week. A 10 times stock of AP5 was prepared in ACSF and stored at 4° C. These stocks were diluted in ACSF to achieve their final concentrations. Picrotoxin was dissolved directly into ACSF immediately before use.
# [2] = system: cultured hippocampal neurons; test: Acid strip immunocytochemistry for internalized GluR1 (AMPARs); type: cell-based, rat; conditions: for effect on DHPG/mGluR-stimulated internalization of GluR1 (in words): APV 50 μM, cycloheximide 60 μM applied 15 min before DHPG; for effect on basal levels of internalized puncta (in words): without DHPG
# [3] = system: cultured hippocampal neurons; test: Immunocytochemical localization of surface synaptic receptors (GluR2, GluR1, NR1, GABAAβ1); type: cell-based, rat; conditions: for GluR1-positive synapses: cycloheximide 60 μM applied 15 min before DHPG where named
# From the text: We next determined if the DHPG-induced increase in internalized AMPARs is accompanied by a net decrease in surface-expressed receptor clusters at synapses. At various intervals after DHPG washout, cells were fixed and surface GluR2 or GluR1 was labeled with N-terminal antibodies without permeabilization. The cultures were then permeabilized, and synapses were labeled using an antibody against the presynaptic marker synapsin I or synaptophysin coupled to the appropriate secondary antibody. Under control conditions, most synapses were immunoreactive for AMPAR clusters (GluR2, 80.6±9.0%; n=10 cells, 200 synapses, FIGS. 5A-D; GluR1, 72.5±4.7%; n=15 cells, 225 synapses; FIGS. 5E and F).
# Following experimental treatment, low-density cultures were fixed in 4% paraformaldehyde with 4% sucrose for 5 min. Cultures were rinsed in PBS and then blocked in PBS with 20% fetal bovine serum for 1 h. Cultures were stained with N-terminal receptor antibodies overnight at 4° C. (GluR2, 1:100, Chemicon, Ternecula, California; GluR1, 1:100, gift of R. Huganir; NR1, 1:500, Chemicon MAB363; GABAAβ1, 1:100 Santa Cruz Biologicals, Santa Cruz, Calif.). Cultures were then rinsed in blocking buffer containing 0.1% Triton-X for 20 min and exposed to antibodies directed against presynaptic proteins (synapsin 1, 1:1000, Chemicon; synaptophysin, 1:100, Boehringer Manheim, Irvine, Calif.) for 1 h at room temperature. Cultures were then rinsed and exposed to the appropriate fluorescent secondary antibodies (Jackson Immunoresearch, West Grove, Pa.).
# Microscopy was performed with a Nikon E800 microscope using a 60×1.4 NA objective (Melville, N.Y.). Fluorescence images were collected with a Sensys cooled CCD camera and analyzed using IP-Labs software. Additional images were collected with a Olympus Flowview confocal microscope with a 60×1.2 NA objective. All analyses were performed blind to the stimulation history of the culture. Microscopic fields had 1-3 neurons displaying smooth soma and generally healthy morphology with multiple distinct processes. Immunofluorescence was analyzed along the proximal 50 μm of 3 or more dendrites per neuron. Immunoreactive puncta were defined as discrete points along the dendrite with fluorescence intensity twice the background staining of the neuron. Five cells were analyzed per culture and 3-6 cultures were analyzed per condition. Separate controls were performed with each experiment and a Student's t-test was used to determine statistical significance. Data are expressed as puncta per 10 μm of dendrite unless stated otherwise.
# [4] = system: high-density cultured hippocampal neurons; test: Biotinylation and quantitative western blot of surface expressed receptors; type: cell-based, rat; conditions: DHPG 50 μM, 5 min; 60 minutes later; cycloheximide 60 μM with DHPG where named
# Protocol: To confirm the effect of mGluR activation on surface AMPARs using an alternative approach, we treated high-density cultures with DHPG (50 μM, 5 min) or control medium and surface receptors were labeled with biotin 60 minutes later. Biotinylated receptors were precipitated and the ratio of surface to total GluR1 was determined by quantitative western blotting. This biochemical analysis confirmed that surface AMPARs are reduced by DHPG treatment to only 56.8±4.0% of the value in control cultures (n=4 in each treatment group; p<0.01; FIG. 6).
# Biotinylation experiments were performed as previously described^35. Briefly, 2-week-old high-density cultured hippocampal neurons were treated with either control medium or 50 μM DHPG for 5 min, and incubated for 1 h at 37° C. to allow endocytosis to occur. The sister cultures were placed on ice to stop endocytosis and washed two times with ice-cold artificial cerebrospinal fluid (ACSF) containing 124 mM NaCl, 5 mM KCl, 1.25 mM NaH2PO4, 26 mM NaHCO3, 0.8 mM MgCl2, 1.8 mM CaCl2, 10 mM dextrose, and saturated with 95% O2, 5% CO2. Cultures were then incubated with ACSF containing 1 mg/ml Sulfo-NHS-LC-Biotin (Pierce Chemical Company, Rockford, Ill.) for 30 min on ice. Cultures were rinsed in TBS to quench the biotin reaction. […] Quantitative western blots were performed on both total and biotinylated (surface) proteins using anti-GluR1 C-terminal (1:1000, Upstate Biotechnology, Lake Placid, N.Y.) and anti-NR1 N-terminal antibodies (1:1000, Chemicon). […] Digital images, produced by densitometric scans of autoradiographs on a ScanJet IIcx (Hewlett Packard, Palo Alto, Calif.) with DeskScan II software (Hewlett Packard), were quantified using NIH Image 1.60 software. The surface/total ratio was calculated for each culture, and treatment groups were compared using a paired t-test. […] For display purposes, the data are expressed as the ratio of DHPG to control values.
compound,measurement,setting,value
"N[C@H](CCCP(=O)(O)O)C(=O)O [AP5, D-2-amino-5-phosphonopentanoic acid]",effect on the magnitude of DHPG-LTD (in words),[1]; AP5 50 μM,no effect
same,magnitude of DHPG-LTD in the presence of AP5,"[1]; AP5 50 μM preincubation, DHPG 50 μM, 5 min",83±3%
same,effect on DHPG/mGluR-stimulated internalization of GluR1 (in words),[2]; LY344545 100 μM,no effect
N[C@](CC1c2ccccc2Oc2ccccc21)(C(=O)O)[C@@H]1C[C@H]1C(=O)O [LY344545],"internalized GluR1 puncta, LY344545 experiment","[2]; DHPG 50 μM, 5 min, LY344545 100 μM",0.32±0.08 puncta per 10 μm of dendrite
same,effect on DHPG/mGluR-stimulated internalization of GluR1 (in words),[2]; LY344545 100 μM,completely blocked
COc1ccc(C[C@H]2NC[C@H](O)[C@H]2OC(C)=O)cc1 [anisomycin],effect on DHPG/mGluR-stimulated internalization of GluR1 (in words),[2]; LY344545 100 μM,blocked
same,effect on basal levels of internalized puncta (in words),[2],Neither cycloheximide nor anisomycin had any significant effect
C[C@@H]1C[C@@H]([C@H](O)CC2CC(=O)NC(=O)C2)C(=O)[C@@H](C)C1 [cycloheximide],effect on DHPG/mGluR-stimulated internalization of GluR1 (in words),[2]; LY344545 100 μM,significantly inhibited; also recorded: decreases
same,"internalized GluR1 puncta, cycloheximide experiment","[2]; measured at 60 minutes, chx 60 μM applied 15 min before DHPG",0.76±0.09 puncta per 10 μm of dendrite
same,effect on basal levels of internalized puncta (in words),[2],Neither cycloheximide nor anisomycin had any significant effect
same,GluR1-positive synapses,[3]; 15 min after DHPG,37.8±3.8%
same,GluR1-positive synapses,[3]; 60 min after DHPG,55.7±5.1%
same,NR1-positive synapses,"[3]; 60 minutes after DHPG treatment, with cycloheximide where named",42+5%
same,"surface NR1 (surface/total), % of the value in control cultures",[4],79.1±14.5%
N[C@@H](Cn1oc(=O)[nH]c1=O)C(=O)O [quisqualic acid],"LTD of FP, % of baseline","[1]; quisqualic acid 5 μM, 5 min",81±2%
same,LTD induced with quisqualic acid in the presence of AP5,"[1]; quisqualic acid 5 μM, with AP5",79±2%
